Legend:
human SGLT1 = molecular target: T1, human SGLT1 (Homo sapiens, UniProt P13866); assay: Inhibition of methyl-α-D-glucopyranoside uptake in COS-7 cells expressing human SGLT1; assay type: cell-based; conditions: 14C α-MG uptake, 1 mM α-MG, transfected COS-7 cells, 1 hour at 37° C.; read-out: hSGLT1 IC50
T1 construct: expressed in transfected cells; host or cells: COS-7 cells, transient lipofection of pcDNA3.1(-) vector
T1 sequence (P13866 1-664): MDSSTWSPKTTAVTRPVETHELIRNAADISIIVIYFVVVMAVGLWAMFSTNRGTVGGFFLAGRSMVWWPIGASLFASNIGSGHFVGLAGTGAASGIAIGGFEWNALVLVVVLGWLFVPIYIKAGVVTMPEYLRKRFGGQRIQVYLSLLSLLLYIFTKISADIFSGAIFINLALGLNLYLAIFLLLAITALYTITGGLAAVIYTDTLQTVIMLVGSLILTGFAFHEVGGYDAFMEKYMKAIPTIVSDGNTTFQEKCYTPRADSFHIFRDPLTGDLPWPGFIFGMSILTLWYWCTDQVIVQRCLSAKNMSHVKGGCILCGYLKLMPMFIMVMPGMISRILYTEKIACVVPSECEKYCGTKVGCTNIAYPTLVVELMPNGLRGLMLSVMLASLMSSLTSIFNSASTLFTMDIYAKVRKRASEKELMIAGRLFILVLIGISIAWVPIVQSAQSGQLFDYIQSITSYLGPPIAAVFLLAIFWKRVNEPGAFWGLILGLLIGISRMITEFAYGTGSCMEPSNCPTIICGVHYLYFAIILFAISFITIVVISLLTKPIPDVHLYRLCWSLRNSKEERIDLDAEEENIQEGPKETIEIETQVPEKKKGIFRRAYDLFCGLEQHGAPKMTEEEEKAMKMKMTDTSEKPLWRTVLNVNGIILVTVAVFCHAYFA
Experimental: (§1) Assay for Inhibitory Effects on Human SGLT Activity
1) Cloning and Construction of the Vector Expressing Human SGLT1
(§2) The cDNA library was prepared for PCR amplification by reverse transcription from total RNA derived from human small intestine (Ori gene) using oligo-dT as a primer. Using this cDNA library as a template, the DNA fragment coding 1 to 2005 bp of human SGLT1 (ACCESSION: M24847), which was reported by Hediger et al., was amplified by PCR method and inserted into the multi-cloning site of pcDNA3.1(−) (Invitrogen). The DNA sequence inserted was perfectly matched to the previously reported sequence.
(§3) 3) Preparation of the Cells Expressing Human SGLT1 or SGLT2 […]
(§4) A mixture of non-labeled (Sigma) and ^14C-labeled α-MG (Amersham Pharmacia Biotech) was added to the uptake buffer (pH 7.4; containing 140 mM sodium chloride, 2 mM potassium chloride, 1 mM calcium chloride, 1 mM magnesium chloride, 10 mM 2-[4-(2-hydroxyethyl)-1-piperazinyl]ethane sulfonic acid and 5 mM tris(hydroxymethyl)aminomethane) at the final concentration of 1 mM. […] Radioactivity was measured by means of micro-scintillation counter TopCount (Packard). One hundred % was set to the difference between the uptake in the control group and the basal uptake, and the uptake of methyl α-D-glucopyranoside at each drug concentration was calculated. […]

human SGLT2 = molecular target: T2, human SGLT2 (Homo sapiens, UniProt P31639); assay: Inhibition of methyl-α-D-glucopyranoside uptake in COS-7 cells expressing human SGLT2; assay type: cell-based; conditions: 14C α-MG uptake, 1 mM α-MG, transfected COS-7 cells, 1 hour at 37° C.; read-out: hSGLT2 IC50
T2 construct: expressed in transfected cells; host or cells: COS-7 cells, transient lipofection of pcDNA3.1(-) vector
T2 sequence (P31639 1-672): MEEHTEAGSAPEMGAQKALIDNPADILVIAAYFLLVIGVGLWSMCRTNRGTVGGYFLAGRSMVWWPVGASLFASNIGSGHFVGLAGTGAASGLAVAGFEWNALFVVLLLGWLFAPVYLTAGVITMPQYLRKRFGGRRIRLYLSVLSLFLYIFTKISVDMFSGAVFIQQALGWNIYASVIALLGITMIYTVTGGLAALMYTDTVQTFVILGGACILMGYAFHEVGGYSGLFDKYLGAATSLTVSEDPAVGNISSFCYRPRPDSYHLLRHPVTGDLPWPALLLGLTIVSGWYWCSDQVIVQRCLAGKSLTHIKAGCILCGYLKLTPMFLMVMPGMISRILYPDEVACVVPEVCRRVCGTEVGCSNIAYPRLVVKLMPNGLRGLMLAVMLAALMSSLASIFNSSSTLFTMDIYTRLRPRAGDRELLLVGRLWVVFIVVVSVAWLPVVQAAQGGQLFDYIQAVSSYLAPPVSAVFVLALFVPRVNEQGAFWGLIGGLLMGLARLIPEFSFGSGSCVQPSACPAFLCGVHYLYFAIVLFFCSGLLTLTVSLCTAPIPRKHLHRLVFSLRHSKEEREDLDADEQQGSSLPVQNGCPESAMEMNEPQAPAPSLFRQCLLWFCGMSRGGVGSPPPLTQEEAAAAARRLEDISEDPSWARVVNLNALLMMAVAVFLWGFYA
Experimental: as §1
2) Cloning and Construction of the Vector Expressing Human SGLT2
as §2, with “human kidney” for “human small intestine”, “coding 2” for “coding 1”, “to 2039” for “to 2005”, “human SGLT2” for “human SGLT1”, “(ACCESSION: M95549, M95299),” for “(ACCESSION: M24847),”, “by R. G. Wells” for “by Hediger”
as §3, §4

IC50 (human SGLT1)	IC50 (human SGLT2)	Compound
83 nM	–	COc1ccc(Cn2cc([C@@H]3O[C@H](CO)[C@@H](O)[C@H](O)[C@H]3O)c3cccc(C)c32)cc1 [Example 6]
–	6 nM	COc1ccc(Cn2cc([C@@H]3O[C@H](CO)[C@@H](O)[C@H](O)[C@H]3O)c3cc(C)ccc32)cc1 [Example 8]

Reference: patent publication US7750145B2, “1-substituted-3-β-D-glucopyranosylated nitrogenous hetero-cyclic compounds and medicines containing the same” (Kissei Pharmaceutical Co., Ltd., priority 2004, dated 2010)
